Experiment: gradient 5% acetonitrile 3 min, to 50% in 2 min, to 85% in 15 min, held 3 min, 100 µL/min
Conditions: column: Zorbax Extend-C18 2.1 x 50 mm; eluents: water / acetonitrile, 0.1% formic acid
How it was run: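 Standards, all pure, were combined into mixtures of ~100 molecules and run at 100 μL/min on a Zorbax Extend-C18 column (2.1 × 50 mm, 1.8 μm) with water and acetonitrile, each containing 0.1% formic acid. A coupled quadrupole time-of-flight mass spectrometer operated in positive and negative ionization mode. Retention time values come from computationally picked adduct peaks, each inspected manually.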

| RP-LC retention time [s] | SMILES |
| --- | --- |
| 1050 | CCOc1cccc(-c2noc(Cn3c(=O)n(-c4ccc(F)cc4)c(=O)c4sccc43)n2)c1 |
| 578 | O=C(CCn1cnc2ccccc2c1=O)N1CCN(c2ccccn2)CC1 |
| 577 | CC(=O)N1C[C@@H]2CCCN3CCC[C@@H]([C@H]23)[C@H]1CCCC(=O)NCC(C)C |
| 847 | Fc1ccc(-c2nc3ncccn3c2Nc2ccc(Cl)cc2)cc1 |
| 773 | CCN(CC)c1ccc(C2=NNC(=O)CC2C)cc1[N+](=O)[O-] (stereo not drawn) |
| 715 | Cc1cccn2c(NC(=O)c3ccc(Br)cc3)c(-c3ccccc3)nc12 |
| 692 | Cc1ccnc(N2CCCC(C(=O)NCc3ccc4c(c3)OCO4)C2)n1 (stereo not drawn) |
| 700 | COc1ccc(N2CCN(c3nc4ccc(C)cc4cc3-c3noc(C)n3)CC2)cc1 |
| 1000 | O=c1c2cc(Cl)ccc2oc2cc(O)cc(O)c12 |
| 1270 | O=C1CC(c2cc(F)cc(F)c2)Cc2nc(N3CCN(c4ccccc4)CC3)ncc21 (stereo not drawn) |
| 1010 | COc1cc(-c2nnc(-c3cccc(S(=O)(=O)N4CCCCC4)c3)o2)cc(OC)c1OC |
| 1090 | CCC(C)NC(=O)c1cc2c(s1)N(CC1CC1)CCCC2 (stereo not drawn) |
| 1030 | Cc1nnc2ccc(-c3noc(-c4ccc(Br)cc4)n3)cn12 |
| 896 | O=C(Nc1ccccc1)C1CCN(S(=O)(=O)c2cc(C(=O)N3CCCCCC3)cs2)CC1 |
| 669 | Cc1cc(C(=O)NC2CC2)c2cc(Cl)ccc2n1 |
| 915 | COC(=O)c1cc(S(=O)(=O)N2CCCC2C(=O)Nc2ccc(C)cc2C)cn1C (stereo not drawn) |
| 607 | OC(CN1CCN(c2ncccn2)CC1)c1ccc(Br)cc1 (stereo not drawn) |
| 966 | O=C(NCCC1=CCCCC1)c1cnc(-c2ccccc2)nc1-c1ccncc1 |
| 792 | CCn1cc(NC(=O)Nc2nc(C)cs2)c2ccccc21 |
| 1270 | Brc1ccc(-c2noc(Cc3nc(-c4ccc5c(c4)OCO5)cs3)n2)cc1 |
| 789 | Cc1ccc(N2CC(c3nc(Cn4cnc5ccccc5c4=O)no3)CC2=O)cc1C (stereo not drawn) |
| 660 | COc1ccc(C2C(C(=O)N3CCCC3)c3cc(OC)c(OC)cc3C(=O)N2C)cc1OC (stereo not drawn) |

| RP-LC retention time [s] | SMILES |
| --- | --- |
| 884 | CCN(CC)C(=O)c1cc(C)nc2c1c(=O)n(Cc1ccccc1)c(=O)n2C |
| 677 | Cc1ccc(S(=O)(=O)c2cnc(N3CCN(c4ccccn4)CC3)nc2N)cc1C |
| 863 | Cc1ccsc1C(=O)Nc1ccc(N2CCN(C3CCCCC3)C2=O)nc1 |
| 1010 | COc1ccc(-c2cc(=O)n3c4ccccc4n(CC(=O)Nc4ccc(F)cc4)c3n2)cc1 |
| 653 | CCC(=O)N1CCc2c(C(=O)NC3CC3)cccc21 |
| 736 | Cc1cc(NC(=O)C(=O)NCC2(c3ccc(F)cc3)CCOCC2)no1 |
| 782 | Cc1ccccc1C(=O)N1C(C(=O)NCC(C)C)COC12CCN(C(=O)C(C)(C)C)CC2 (stereo not drawn) |
| 863 | NS(=O)(=O)c1cccnc1Nc1ccc(Cl)cc1 |
| 640 | O=C(CSCc1ccccc1)Nc1cccc(-c2cn3cccnc3n2)c1 |
| 847 | O=C(Nc1cccc(Br)c1)N1CCC(N2CCN(Cc3ccccc3)C2=O)CC1 |
| 961 | COc1ccc(CNC(=O)C2(C)CCN(S(=O)(=O)c3ccc(Br)s3)CC2)cc1 |
| 738 | COCCn1c(=O)c2c(nc3n2CCCN3c2ccccc2)n(C)c1=O |
| 936 | Clc1ccc(C2Cn3nnc(-c4nc(-c5ccccn5)no4)c3CO2)cc1 (stereo not drawn) |
| 1060 | COCc1cc(=O)n(CC(=O)Nc2cc(C(F)(F)F)ccc2Cl)c(N2CCOCC2)n1 |
| 1460 | Cc1cccc(N2CCN(c3ccc4cc(S(=O)(=O)N5CCC(C)CC5)ccc4n3)CC2)c1C |
| 632 | CC(C)c1nc(NC(=O)Cn2nc3c(cc2=O)CCCCC3)n[nH]1 |
| 907 | Cc1ccccc1NC(=O)Cn1nc2cc(-c3ccccc3)nc(C)n2c1=O |
| 854 | CCOc1ccccc1CNC(=O)CN1CCN(Cc2ccccc2F)C1=O |
| 837 | CCC(C)NC(=O)N1CCCN(C2=NS(=O)(=O)C(c3cccc(Cl)c3)=C2C)CC1 (stereo not drawn) |
| 1160 | CCOC(=O)C(C)Oc1ccc2c(c1)O/C(=C\c1cc(Cl)cc3c1OCOC3)C2=O (stereo not drawn) |
| 1090 | CCn1c(=O)c(N2CCCC(C(=O)N3CCN(c4ccc(F)cc4)CC3)C2)nc2ccccc21 (stereo not drawn) |
| 813 | CCC(=O)Nc1ccc(CCc2nc3ccc(C(=O)NC(C)C)cc3[nH]2)cc1 |

| RP-LC retention time [s] | SMILES |
| --- | --- |
| 736 | CN(CCc1noc(-c2ccc(C(=O)N3CCCC3)cc2)n1)C(=O)c1ccccc1Br |
| 861 | Cc1cccc(NC(=O)Cn2c(C)nc3onc(C)c3c2=O)c1C |
| 1230 | O=C(c1nnc(-c2ccc(S(=O)(=O)N3CCCCC3)cc2)o1)N1CCC(Cc2ccccc2)CC1 |
| 620 | CC(=O)N1c2ccc(S(=O)(=O)N3CCC(c4ccncc4)CC3)cc2CC1C (stereo not drawn) |
| 625 | COc1ccc(NC(=O)NC2CCN(c3cc(N4CCCC4)cnn3)C2)cc1F (stereo not drawn) |
| 823 | Cc1nn2c(N3CCN(c4ccccn4)CC3)cc(C(C)C)nc2c1-c1ccccc1 |
| 879 | Cc1nc(Cn2cccc2C(=O)NC2CCCCCC2)no1 |
| 598 | Cn1c(C(=O)N2CCN(c3ccccn3)CC2)cc2sccc21 |
| 905 | CCSc1nnc(-c2nn(C)c3c2CN(S(=O)(=O)Cc2ccccc2F)CC3)n1CC |
| 924 | COc1ccc(OC)c(CNC(=O)C2CCCN(c3ccc(=O)n(-c4ccc(C)c(Cl)c4)n3)C2)c1 (stereo not drawn) |
| 820 | Cc1noc(C)c1C(=O)N1CCCC1Cc1noc(C2CCCC2)n1 (stereo not drawn) |
| 888 | CC(C)C(=O)Nc1ccc(C2(C(=O)Nc3ccc(N4CCOCC4)cc3)CCCCC2)cc1 |
| 722 | O=C(Cn1nc2c(N3CCSCC3)nccn2c1=O)NC1CCCC1 |
| 1060 | Cc1ccc(NC(=O)C2CCCN(S(=O)(=O)c3cc(-c4noc(C)n4)cs3)C2)c(Cl)c1 (stereo not drawn) |
| 845 | O=C1CN(Cc2ccccc2)[C@H]2CS(=O)(=O)C[C@H]2N1c1ccc(Br)cc1 |
| 806 | Cc1ccc(NS(=O)(=O)c2cc(-c3[nH]ncc3C(=O)N3CCCCC3)oc2C)c(F)c1 |
| 685 | CC1CCN(CCCC(=O)c2ccc(F)cc2)CC1 |
| 723 | CC(C)c1cccc(NC(=O)Cn2cnc3nc(N4CCCC(C(=O)NC5CC5)C4)sc3c2=O)c1 (stereo not drawn) |
| 891 | CCc1nc(-c2cc(S(=O)(=O)NCC(=O)N3CCCCC3)c(C)s2)no1 |
| 1010 | COc1cccc(NC(=O)Cn2nc3cc(C)nc(Nc4ccccc4C)n3c2=O)c1 |
| 1200 | Cc1cc(C)cc(-c2nnc(Cc3nc(-c4ccccc4C)no3)o2)c1 |
| 1200 | CCc1cc(-c2csc(S(=O)(=O)N3CCN(c4ccc(Cl)cc4)CC3)c2)on1 |

| RP-LC retention time [s] | SMILES |
| --- | --- |
| 674 | Cn1cc(S(=O)(=O)N2CCC(C(=O)NCc3cccnc3)CC2)cc1C(=O)N1CCCC1 |
| 731 | COc1cccc(NC(=O)N2CCN(Cc3nc4cc(Cl)ccc4o3)CC2)c1 |
| 551 | N#Cc1cccc(CN2CCC(F)(F)C(CO)C2)c1 (stereo not drawn) |
| 776 | Cc1ccc(NC(=O)Nc2cccn3ncnc23)cc1 |
| 838 | CCN(C(=O)C1CCC(C)CC1)c1nc(-c2ccccc2)cs1 (stereo not drawn) |
| 567 | CCNC(=O)c1cc(N(C)C)nc2ccccc12 |
| 680 | CCCCN(C)C(=O)Cn1c(C2CC(=O)N(C3CCCC3)C2)nc2ccccc21 (stereo not drawn) |
| 633 | CN(C)CCn1nnc2cc(-c3noc(-c4cccc(C#N)c4)n3)ccc21 |
| 786 | Cc1cc2nc(CSc3nnc(-c4ccc(Cl)cc4)o3)cc(=O)n2o1 |
| 765 | Cc1cccc(NC(=O)C(C)n2cnc3nc4c(cc3c2=O)CCCC4)c1C (stereo not drawn) |
| 999 | CC(C)CN(CC1CCCO1)C(=O)CN1CC2=C(C1=O)C(c1ccccc1Cl)NC(=O)N2C (stereo not drawn) |
| 963 | Cc1sc(-c2nnc(C3CC3)o2)cc1NC(=O)c1ccc(N(C)C)cc1 |
| 1060 | Cc1cc(C)nc(N2CCN(c3cccc(Cl)c3)CC2)n1 |
| 912 | CC(C)Cn1cc(S(=O)(=O)Nc2cccc(F)c2)c2cccnc21 |
| 755 | COc1ccc(C)cc1NC(=O)C1CC(=O)N(c2n[nH]c3ccccc23)C1 (stereo not drawn) |
| 953 | Cc1cc(OCC(=O)Nc2ccnn2Cc2ccco2)cc(C)c1Cl |
| 651 | O=c1c2cc(-c3ccccc3)nn2ccn1Cc1noc(CN2CCCCC2)n1 |
| 621 | Cc1ccc(NC(=O)N2CCN(CCn3c(C(C)C)nc4cccnc43)CC2)c(C)c1 |
| 1080 | Cc1cccc(NC(=O)N2CCc3nc(-c4ccc(Cl)cc4)ncc3C2)c1 |
| 686 | Cc1ccsc1C(=O)Nc1ccc2c(N3CCCCC3)ncnc2c1 |

| SMILES | RP-LC retention time [s] |
| --- | --- |
| O=C(O)c1ccc(NC(=O)N2C[C@@H]3C[C@@H](C2)c2cccc(=O)n2C3)cc1 | 592 |
| COc1cc2c3cc1Oc1c(OC)c(OC)cc4c1C(Cc1ccc(cc1)Oc1cc(ccc1O)CC3N(C)CC2)N(C)CC4 (stereo not drawn) | 579 |
